The assay has as its target T1, human PKCθ full length enzyme (Homo sapiens, UniProt Q04759).
T1 construct: human PKCθ full length enzyme (Panvera Catalog No. P2996); purchased Panvera P2996
The assay is described as follows: PKCθ IMAP Assay. Particulars: average value when one or more samples were tested; ATP 6 uM, PKCθ 1 nM. The assay is classed as biochemical. In outline:
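IMAP fluorescence polarization after 20 min with binding beads measured phosphorylation of 100 nM 5FAM-peptide. Reactions held 1 nM full-length human PKCθ, 6 uM ATP, 5% DMSO and DTT-containing buffer, 25 min at room temperature. Compounds tested as 2:1 serial dilutions; controls lacked ATP or enzyme.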
T1 sequence (Q04759 whole entry): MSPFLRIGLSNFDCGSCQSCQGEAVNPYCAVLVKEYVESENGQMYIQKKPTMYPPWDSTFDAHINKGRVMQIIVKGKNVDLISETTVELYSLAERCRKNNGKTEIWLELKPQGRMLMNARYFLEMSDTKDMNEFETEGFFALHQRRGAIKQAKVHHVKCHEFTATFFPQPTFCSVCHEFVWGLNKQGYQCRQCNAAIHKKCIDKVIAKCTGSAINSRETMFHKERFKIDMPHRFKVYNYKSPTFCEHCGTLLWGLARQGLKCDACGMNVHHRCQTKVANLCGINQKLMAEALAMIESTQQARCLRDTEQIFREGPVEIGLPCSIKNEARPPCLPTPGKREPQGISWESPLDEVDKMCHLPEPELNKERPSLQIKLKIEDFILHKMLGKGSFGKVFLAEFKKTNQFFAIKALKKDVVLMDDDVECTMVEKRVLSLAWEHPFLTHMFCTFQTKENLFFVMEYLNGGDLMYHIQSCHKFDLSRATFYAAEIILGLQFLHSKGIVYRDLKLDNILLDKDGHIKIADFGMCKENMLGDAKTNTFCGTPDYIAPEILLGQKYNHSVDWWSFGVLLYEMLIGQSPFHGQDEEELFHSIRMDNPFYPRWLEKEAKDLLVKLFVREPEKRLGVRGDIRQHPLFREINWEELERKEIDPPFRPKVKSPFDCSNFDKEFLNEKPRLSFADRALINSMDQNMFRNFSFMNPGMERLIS
Turning to `Cc1c(Nc2c(C#N)cnc3sc(-c4cccc(NCCN(C)C)c4)cc23)ccc2[nH]ccc12` [Compound 394, 2-(3-{[2-(dimethylamino)ethyl]amino}phenyl)-4-[(4-methyl-1H-indol-5-yl)amino]thieno[2,3-b]pyridine-5-carbonitrile], half-maximal inhibition (IC50) required 10 nM.

In the case of `Cc1c(Nc2c(C#N)cnc3sc(-c4cnc(N5CCCCC5)nc4)cc23)ccc2[nH]ccc12` [Compound 395, 4-[(4-methyl-1H-indol-5-yl)amino]-2-(2-piperidin-1-ylpyrimidin-5-yl)thieno[2,3-b]pyridine-5-carbonitrile], the IC50 came to 281 nM.

Compound `Cc1c(Nc2c(C#N)cnc3sc(-c4cnc(N5CCCC5)nc4)cc23)ccc2[nH]ccc12` [Compound 396, 4-[(4-methyl-1H-indol-5-yl)amino]-2-(2-pyrrolidin-1-ylpyrimidin-5-yl)thieno[2,3-b]pyridine-5-carbonitrile] returned an IC50 of 156 nM.

Compound `Cc1c(Nc2c(C#N)cnc3sc(-c4ccc(N5CCCCC5)nc4)cc23)ccc2[nH]ccc12` [Compound 397, 4-[(4-methyl-1H-indol-5-yl)amino]-2-(6-piperidin-1-ylpyridin-3-yl)thieno[2,3-b]pyridine-5-carbonitrile] came in with an IC50 of 292 nM.

Turning to `Cc1c(Nc2c(C#N)cnc3sc(-c4ccccc4CO)cc23)ccc2[nH]ccc12` [Compound 398, 2-[2-(hydroxymethyl)phenyl]-4-[(4-methyl-1H-indol-5-yl)amino]thieno[2,3-b]pyridine-5-carbonitrile], the IC50 turned out to be 75 nM.

On to `Cc1c(Nc2c(C#N)cnc3sc(-c4ccccc4OCCN(C)C)cc23)ccc2[nH]ccc12` [Compound 399, 2-{2-[2-(dimethylamino)ethoxy]phenyl}-4-[(4-methyl-1H-indol-5-yl)amino]thieno[2,3-b]pyridine-5-carbonitrile], for which the IC50 was 1 nM.

For `N#Cc1cnc2sc(/C=C/c3ccccc3)cc2c1Nc1ccc2[nH]ccc2c1` [Compound 400, 4-(1H-indol-5-ylamino)-2-[(E)-2-phenylvinyl]thieno[2,3-b]pyridine-5-carbonitrile], the IC50 amounted to 437 nM.

Compound `N#Cc1cnc2sc(/C=C/c3ccc(F)cc3)cc2c1Nc1ccc2[nH]ccc2c1` [Compound 401, 2-[(E)-2-(4-fluorophenyl)vinyl]-4-(1H-indol-5-ylamino)thieno[2,3-b]pyridine-5-carbonitrile] returned an IC50 of 2450 nM.

Turning to `N#Cc1cnc2sc(/C=C/c3cccc(F)c3)cc2c1Nc1ccc2[nH]ccc2c1` [Compound 402, 2-[(E)-2-(3-fluorophenyl)vinyl]-4-(1H-indol-5-ylamino)thieno[2,3-b]pyridine-5-carbonitrile], the IC50 worked out at 465 nM.

Compound `N#Cc1cnc2sc(/C=C/CCO)cc2c1Nc1ccc2[nH]ccc2c1` [Compound 403, 2-[(1E)-4-hydroxybut-1-en-1-yl]-4-(1H-indol-5-ylamino)thieno[2,3-b]pyridine-5-carbonitrile] gave an IC50 of 394 nM.

Compound `COc1cccc(/C=C/c2cc3c(Nc4ccc5[nH]ccc5c4)c(C#N)cnc3s2)c1` [Compound 404, 4-(1H-indol-5-ylamino)-2-[(E)-2-(3-methoxyphenyl)vinyl]thieno[2,3-b]pyridine-5-carbonitrile] displayed an IC50 of 1140 nM.

The compound `COc1ccc(/C=C/c2cc3c(Nc4ccc5[nH]ccc5c4)c(C#N)cnc3s2)cc1` [Compound 405, 4-(1H-indol-5-ylamino)-2-[(E)-2-(4-methoxyphenyl)vinyl]thieno[2,3-b]pyridine-5-carbonitrile] displayed an IC50 of 477 nM.

Regarding `Cc1ccc(/C=C/c2cc3c(Nc4ccc5[nH]ccc5c4)c(C#N)cnc3s2)cc1` [Compound 406, 4-(1H-indol-5-ylamino)-2-[(E)-2-(4-methylphenyl)vinyl]thieno[2,3-b]pyridine-5-carbonitrile], the IC50 came out at 12000 nM.

For `N#Cc1cnc2sc(/C=C/c3ccc(C(F)(F)F)cc3)cc2c1Nc1ccc2[nH]ccc2c1` [Compound 408, 4-(1H-indol-5-ylamino)-2-{(E)-2-[4-(trifluoromethyl)phenyl]vinyl}thieno[2,3-b]pyridine-5-carbonitrile], the IC50 was found to be 23500 nM.

Compound `N#Cc1cnc2sc(/C=C/Cc3ccccc3)cc2c1Nc1ccc2[nH]ccc2c1` [Compound 409, 4-(1H-indol-5-ylamino)-2-[(1E)-3-phenylprop-1-en-1-yl]thieno[2,3-b]pyridine-5-carbonitrile] gave an IC50 of 3700 nM.

For the compound `C=C(c1ccccc1)c1cc2c(Nc3ccc4[nH]ccc4c3)c(C#N)cnc2s1` [Compound 410, 4-(1H-indol-5-ylamino)-2-(1-phenylvinyl)thieno[2,3-b]pyridine-5-carbonitrile], the IC50 turned out to be 1050 nM.

In turn, `CCCC/C=C/c1cc2c(Nc3ccc4[nH]ccc4c3)c(C#N)cnc2s1` [Compound 411, 2-[(1E)-hex-1-en-1-yl]-4-(1H-indol-5-ylamino)thieno[2,3-b]pyridine-5-carbonitrile] came in with an IC50 of 2550 nM.

`COC/C=C/c1cc2c(Nc3ccc4[nH]ccc4c3)c(C#N)cnc2s1` [Compound 412, 4-(1H-indol-5-ylamino)-2-[(1E)-3-methoxyprop-1-en-1-yl]thieno[2,3-b]pyridine-5-carbonitrile] came in with an IC50 of 413 nM.

In turn, `Cc1c(Nc2c(C#N)cnc3sc(-c4ccc(S(N)(=O)=O)cc4)c(C)c23)ccc2[nH]ccc12` [Compound 413, 4-{5-cyano-3-methyl-4-[(4-methyl-1H-indol-5-yl)amino]thieno[2,3-b]pyridin-2-yl}benzenesulfonamide] gave an IC50 of 7 nM.

In turn, `CNS(=O)(=O)c1ccc(-c2sc3ncc(C#N)c(Nc4ccc5[nH]ccc5c4C)c3c2C)cc1` [Compound 414, 4-{5-cyano-3-methyl-4-[(4-methyl-1H-indol-5-yl)amino]thieno[2,3-b]pyridin-2-yl}-N-methylbenzenesulfonamide] came in with an IC50 of 29 nM.

In turn, `CNS(=O)(=O)c1ccc(-c2sc3ncc(C#N)c(Nc4ccc5[nH]ccc5c4)c3c2C)cc1` [Compound 415, 4-[5-cyano-4-(1H-indol-5-ylamino)-3-methylthieno[2,3-b]pyridin-2-yl]-N-methylbenzenesulfonamide] registered a half-maximal inhibitory concentration (IC50) of 642 nM.

Compound `Cc1c(Nc2c(C#N)cnc3sc(/C=C/c4ccccc4)cc23)ccc2[nH]ccc12` [Compound 416, 4-[(4-methyl-1H-indol-5-yl)amino]-2-[(E)-2-phenylvinyl]thieno[2,3-b]pyridine-5-carbonitrile] showed an IC50 of 34 nM.

`C=Cc1cc2c(Nc3ccc4[nH]ccc4c3C)c(C#N)cnc2s1` [Compound 417, 4-[(4-methyl-1H-indol-5-yl)amino]-2-vinylthieno[2,3-b]pyridine-5-carbonitrile]: the IC50 worked out at 33 nM.

In turn, `Cc1c(Nc2c(C#N)cnc3sc(C4=CCN(C(=O)OC(C)(C)C)CC4)cc23)ccc2[nH]ccc12` [Compound 418, tert-butyl 4-{5-cyano-4-[(4-methyl-1H-indol-5-yl)amino]thieno[2,3-b]pyridin-2-yl}-5,6-dihydropyridine-1(2H)-carboxylate] showed an IC50 of 100 nM.

The compound `CC(C)(C)OC(=O)N1CC=C(c2cc3c(Nc4ccc5[nH]ccc5c4)c(C#N)cnc3s2)CC1` [Compound 419, tert-butyl 4-[5-cyano-4-(1H-indol-5-ylamino)thieno[2,3-b]pyridin-2-yl]-3,6-dihydropyridine-1(2H)-carboxylate] came in with an IC50 of 954 nM.

The compound `Cc1c(Nc2c(C#N)cnc3sc(/C=C/CCO)cc23)ccc2[nH]ccc12` [Compound 420, 2-[(1E)-4-hydroxybut-1-en-1-yl]-4-[(4-methyl-1H-indol-5-yl)amino]thieno[2,3-b]pyridine-5-carbonitrile] had an IC50 of 14 nM.

For the compound `Cc1c(Nc2c(C#N)cnc3sc(C4=CCCCC4)cc23)ccc2[nH]ccc12` [Compound 421, 2-cyclohex-1-en-1-yl-4-[(4-methyl-1H-indol-5-yl)amino]thieno[2,3-b]pyridine-5-carbonitrile], inhibition was half-maximal at 324 nM (IC50).

As for `COC/C=C/c1cc2c(Nc3ccc4[nH]ccc4c3C)c(C#N)cnc2s1` [Compound 422, 2-[(1E)-3-methoxyprop-1-en-1-yl]-4-[(4-methyl-1H-indol-5-yl)amino]thieno[2,3-b]pyridine-5-carbonitrile], the IC50 turned out to be 69 nM.

Compound `Cc1c(Nc2c(C#N)cnc3sc(-c4cccc(C(=O)N5CCCC5)c4)cc23)ccc2[nH]ccc12` [Compound 423, 4-[(4-methyl-1H-indol-5-yl)amino]-2-[3-(pyrrolidin-1-ylcarbonyl)phenyl]thieno[2,3-b]pyridine-5-carbonitrile] showed an IC50 of 58 nM.

In turn, `Cc1c(Nc2c(C#N)cnc3sc(-c4ccccc4)c(C)c23)ccc2[nH]ccc12` [Compound 424, 3-methyl-4-[(4-methyl-1H-indol-5-yl)amino]-2-phenylthieno[2,3-b]pyridine-5-carbonitrile] registered an IC50 of 194 nM.

Compound `Cc1c(Nc2c(C#N)cnc3sc(/C=C/c4ccccc4)c(C)c23)ccc2[nH]ccc12` [Compound 425, 3-methyl-4-[(4-methyl-1H-indol-5-yl)amino]-2-[(E)-2-phenylvinyl]thieno[2,3-b]pyridine-5-carbonitrile] displayed an IC50 of 95 nM.

In turn, `Cc1c(Nc2c(C#N)cnc3sc(-c4cccc(NS(C)(=O)=O)c4)c(C)c23)ccc2[nH]ccc12` [Compound 426, N-(3-{5-cyano-3-methyl-4-[(4-methyl-1H-indol-5-yl)amino]thieno[2,3-b]pyridin-2-yl}phenyl)methanesulfonamide] registered a half-maximal inhibitory concentration (IC50) of 119 nM.

Consider `Cc1c(Nc2c(C#N)cnc3sc(-c4cccc(S(N)(=O)=O)c4)c(C)c23)ccc2[nH]ccc12` [Compound 427, 3-{5-cyano-3-methyl-4-[(4-methyl-1H-indol-5-yl)amino]thieno[2,3-b]pyridin-2-yl}benzenesulfonamide], for which it took 34 nM to reach half-maximal inhibition (IC50).

For `CNS(=O)(=O)c1cccc(-c2sc3ncc(C#N)c(Nc4ccc5[nH]ccc5c4C)c3c2C)c1` [Compound 428, 3-{5-cyano-3-methyl-4-[(4-methyl-1H-indol-5-yl)amino]thieno[2,3-b]pyridin-2-yl}-N-methylbenzenesulfonamide], the midpoint of inhibition, the IC50, lay at 60 nM.

Source of the values: patent US20070082880A1 (priority 2005, published 2007).
